This note sets out measurements from patent US20120255853A1, “Method for Producing Superoxide, Method for Evaluating Superoxide Scavenging Ability, Device for Producing Superoxide, and Device for Evaluating Superoxide Scavenging Ability” (Sapporo Medical University, priority 2009, published 2012).

Assay [1] is described as follows: Inhibition of radical generation by SOD, superoxide generated by light irradiation of riboflavin (ESR). The assay is classed as biochemical. The protocol:
To the aqueous solution thus prepared, superoxide dismutase (SOD) (Sigma), which is an enzyme that specifically scavenges superoxide, was added at 10 U/mL to separately prepare an aqueous solution with added SOD.
The aqueous solutions prepared in the present Example (1) (aqueous solutions with or without SOD) were each introduced into the sample tube of the electron spin resonance device JES-RE1X (JEOL Ltd.). Using a xenon lamp, the sample tube was irradiated with visible light of 1500 lux for 30 seconds. Subsequently, a measurement was made by ESR under the following measurement conditions to obtain a spectrum. The spectrum of the SOD-free aqueous solution was obtained as Spectrum A, and the spectrum of the aqueous solution with added SOD was obtained as Spectrum B. The results thus obtained are shown in FIG. 10. […]
Following a similar operation to Example 1 (2), each of the aqueous solutions thus prepared was measured by ESR to obtain a spectrum. Based on the spectrum thus obtained, the amount of a radical generated was quantified.
Based on the quantification results of the amount of a radical generated in the present Examples (1) and (2), the radical generation-inhibitory rate by SOD was calculated by the following formula 5. […]

Assay [2] can be described thus: Inhibition of radical generation by SOD, superoxide generated by xanthine oxidase (ESR). As to conditions: SOD 0.5, 1, 1.5 U/mL; hypoxanthine 0.39 mmol/L, xanthine oxidase 0.2 U/mL; compared with riboflavin system. Type of assay: biochemical. The protocol:
Into a 50 mmol/L phosphate buffer with pH 7.4, hypoxanthine, CYPMPO (Radical Research Inc.), and diethylenetriaminopentaacetic acid (DETAPAC) were each added at 0.39 mmol/L, 10 mmol/L, and 0.1 mmol/L, respectively, to prepare an aqueous solution (SOD-free aqueous solution). Further, to this aqueous solution, SOD (Sigma) was added at a concentration of 0.5 U/mL, 1 U/mL, and 1.5 U/mL to separately prepare aqueous solutions with added SOD.
To each of the SOD-free aqueous solution and aqueous solutions with added SOD thus prepared, xanthine oxidase was added at 0.2 U/mL. Following a similar operation to Example 1 (2), each of the aqueous solutions was measured by ESR to obtain a spectrum. Subsequently, based on the spectrum thus obtained, the amount of a radical generated was quantified. Measurement by ESR was performed 60 seconds after the addition of xanthine oxidase.
Based on the quantification results of the amount of a radical generated in the present Examples (1) and (2), the radical generation-inhibitory rate by SOD was calculated by the following formula 5.
Radical generation-inhibitory rate by SOD=(S0−S)/[…] (Formula 5)

Consider superoxide dismutase [SOD], for which the “Radical generation-inhibitory rate by SOD” value in assay [1] (SOD 0.5, 1, 1.5 U/mL, light irradiation of riboflavin, compared with xanthine oxidase system) is recorded as “approximately the same values”; in assay [2], “approximately the same values”. In addition, the “Superoxide scavenging (radicals generated with added SOD)” value in assay [1] (SOD 10 U/mL, riboflavin 1 μmol/L, EDTA 5 mmol/L, CYPMPO 10 mmol/L) is listed as “generated a small amount of EDTA radicals but not superoxide”.
